Data published in patent publication US5008271A, “DC-88A derivatives” (Kyowa Hakko Kogyo Co., Ltd., priority 1988, dated 1991).

test system: HeLa S3 cells; assay: Growth inhibition test using HeLa S3 cells; type: cell-based; conditions: Homo sapiens, HeLa S3, 72 h, read-out: IC50 (concentration which inhibited growth of the cells by 50%), HeLa S3 cells, 72 hours, neutral red staining
Method: The pharmacological activity of Compound (I), Compound (II) and Compound (III) was determined by growth inhibition test using HeLa S3 cells.
Test on growth inhibition of HeLa S3 cells:
HeLa S3 cells diluted to 3×10^4 cells/ml with MEM medium containing 10% calf fetal serum and 2 mM glutamine were separately distributed by 0.1 ml each in each well of a 96 well microtiter plate.
After culturing at 37° C. overnight in a CO2 incubator, 0.05 ml each of a test sample appropriately diluted with MEM medium was added to each well.
After culturing the cells for 72 hours in the CO2 incubator, the culture supernatant was removed. After washing once with phosphate buffered physiological saline (PBS), 0.1 ml each of MEM medium containing 0.02% neutral red was added to each well and then cultured at 37° C. for an hour in the CO2 -incubator to stain the cells. After removing the culture supernatant, the cells were washed once with physiological saline, and the dye was extracted with 0.001 N HCl/30% ethanol. Absorbance at 550 nm of the extract was measured with a microplate reader. By comparing absorbance of extract of intact cells with that of the cells treated with a test compound in known concentrations IC50, i.e. the concentration which inhibited growth of the cells by 50% was determined.

Row | SMILES | IC50 [nM]
1 | COC(=O)C1(C)Nc2c(O)cc3c(c2C1O)C(CBr)CN3C(=O)c1cc2cc(OC)c(OC)c(OC)c2[nH]1 (stereo not drawn) [Compound 5] | 0.26
2 | C=CCOC(=O)Oc1cc2c(c3c1NC(C)(C(=O)OC)C3=O)C(CBr)CN2C(=O)c1cc2cc(OC)c(OC)c(OC)c2[nH]1 (stereo not drawn) [Compound 14] | 0.14
3 | CCCCCCCCCCCC(=O)Oc1cc2c(c3c1NC(C)(C(=O)OC)C3=O)C(CBr)CN2C(=O)c1cc2cc(OC)c(OC)c(OC)c2[nH]1 (stereo not drawn) [Compound 15] | 0.042
4 | COC(=O)C1(C)NC2=C(C1=O)C13CC1CN(C(=O)c1cc4cc(OC)c(OC)c(OC)c4[nH]1)C3=CC2=O (stereo not drawn) [DC-88A] | 0.039
5 | COC(=O)C1(C)Nc2c(O)cc3c(c2C1=O)C(CBr)CN3C(=O)c1cc2cc(OC)c(OC)c(OC)c2[nH]1 (stereo not drawn) [DC-89B2, reference compound] | 0.014

same assay, conditions: Homo sapiens; HeLa S3 cells, 72 hours, neutral red staining; read-out: IC50 (concentration which inhibited growth of the cells by 50%)

Row | SMILES | IC50 [nM]
6 | CCOC(=O)C1(C)Nc2c(O)cc3c(c2C1=O)C(CBr)CN3C(=O)c1cc2cc(OC)c(OC)c(OC)c2[nH]1 (stereo not drawn) [Compound 17] | 0.019
7 | C=CCOC(=O)C1(C)Nc2c(O)cc3c(c2C1=O)C(CBr)CN3C(=O)c1cc2cc(OC)c(OC)c(OC)c2[nH]1 (stereo not drawn) [Compound 19] | 0.94
8 | COc1cc2cc(C(=O)N3CC(CBr)c4c3cc(O)c3c4C(=O)C(C)(C(=O)OCc4ccccc4)N3)[nH]c2c(OC)c1OC (stereo not drawn) [Compound 21] | 1.9
9 | C=CCC1(C)Nc2c(O)cc3c(c2C1=O)C(CBr)CN3C(=O)c1cc2cc(OC)c(OC)c(OC)c2[nH]1 (stereo not drawn) [Compound 25] | 0.29
10 | COc1cc2cc(C(=O)N3CC(CBr)c4c3cc(O)c3c4C(O)C(C)(COC(C)=O)N3)[nH]c2c(OC)c1OC (stereo not drawn) [Compound 27] | 3.3

same assay, conditions: read-out: IC50 (concentration which inhibited growth of the cells by 50%); HeLa S3 cells, 72 hours, neutral red staining

Row | SMILES | IC50 [nM]
11 | COC(=O)C1(C)Nc2c(O)cc3c(c2C1O)C(CBr)CN3C(=O)c1cc2cc(OC)c(OC)c(OC)c2[nH]1 (stereo not drawn) [Compound 6] | 0.2

test system: dd strain male mice; assay: Acute toxicity test (minimum lethal dose); type: in vivo; conditions: intraperitoneal, mortality observed for 14 days
Method: Using dd strain male mice weighing 20 ±l g, a test compound was intraperitoneally administered. MLD (the minimum lethal dose) was determined by observing the mortality for 14 days after administration.

Row | SMILES | Acute Toxicity (MLD), minimum lethal dose [mg/kg]
12 | COC(=O)C1(C)Nc2c(O[Si](C)(C)C(C)(C)C)cc3c(c2C1=O)C(CBr)CN3C(=O)c1cc2cc(OC)c(OC)c(OC)c2[nH]1 (stereo not drawn) [Compound 1] | 0.25
13 | COC(=O)C1(C)Nc2c(O)cc3c(c2C1O)C(CBr)CN3C(=O)c1cc2cc(OC)c(OC)c(OC)c2[nH]1 (stereo not drawn) [Compound 5] | 0.63
14 | COC(=O)C1(C)Nc2c(O)cc3c(c2C1O)C(CBr)CN3C(=O)c1cc2cc(OC)c(OC)c(OC)c2[nH]1 (stereo not drawn) [Compound 6] | 1.3
15 | COC(=O)C1(C)Nc2c(OC(C)=O)cc3c(c2C1=O)C(CBr)CN3C(=O)c1cc2cc(OC)c(OC)c(OC)c2[nH]1 (stereo not drawn) [Compound 7] | 0.063
16 | COC(=O)C1(C)Nc2c(O[Si](C)(C)C(C)(C)C)cc3c(c2C1OC(C)=O)C(CBr)CN3C(=O)c1cc2cc(OC)c(OC)c(OC)c2[nH]1 (stereo not drawn) [Compound 8] | 2.5
17 | COC(=O)C1(C)Nc2c(OC(=O)N(C)C)cc3c(c2C1=O)C(CBr)CN3C(=O)c1cc2cc(OC)c(OC)c(OC)c2[nH]1 (stereo not drawn) [Compound 13] | 2.5
18 | C=CCOC(=O)Oc1cc2c(c3c1NC(C)(C(=O)OC)C3=O)C(CBr)CN2C(=O)c1cc2cc(OC)c(OC)c(OC)c2[nH]1 (stereo not drawn) [Compound 14] | 0.5
19 | CCCCCCCCCCCC(=O)Oc1cc2c(c3c1NC(C)(C(=O)OC)C3=O)C(CBr)CN2C(=O)c1cc2cc(OC)c(OC)c(OC)c2[nH]1 (stereo not drawn) [Compound 15] | 0.5

test system: various bacteria; assay: not given; conditions: against various bacteria; cited from earlier work

Row | SMILES | antibacterial activity
20 | COC(=O)C1(C)NC2=C(C1=O)C13CC1CN(C(=O)c1cc4cc(OC)c(OC)c(OC)c4[nH]1)C3=CC2=O (stereo not drawn) [DC-88A] | exhibits not only an antibacterial activity against various bacteria

test system: lymphocytic leukemia P388; assay: not given; conditions: lymphocytic leukemia P388, etc.; cited from earlier work

Row | SMILES | antitumor activity against lymphocytic leukemia P388
21 | COC(=O)C1(C)NC2=C(C1=O)C13CC1CN(C(=O)c1cc4cc(OC)c(OC)c(OC)c4[nH]1)C3=CC2=O (stereo not drawn) [DC-88A] | an antitumor activity against lymphocytic leukemia P388, etc.
